Results reported in patent publication US9717742B2, “Oxysterol analogue OXY133 induces osteogenesis and hedgehog signaling and inhibits adipogenesis” (The Regents of the University of California, priority 2012, dated 2017).

What was measured:
[1] = test system: M2-10B4 (M2) bone marrow stromal cells; experiment: Alkaline phosphatase (ALP) activity assay on whole cell extracts, M2 cells; format: cell-based, mouse; details: data not shown
Lewis rats [2] = details: prior studies (15), 4 weeks; cited from earlier work
[3] = test system: 8×-Gli luciferase reporter (Hedgehog signaling); experiment: Gli-dependent luciferase reporter assay in C3H cells; format: cell-based, mouse; details: 48 hours
Method: After 4 days ALP activity, and after 7 days the expression of osteogenic genes ALP, BSP, and OSX was measured by quantitative real-time PCR (p<0.001 for control vs. Oxy133, and for Oxy133 vs. Oxy133+Cyc for ALP activity and for the expression of all genes shown). […] (p<0.001 for control vs. Oxy133 at 100 nM, 250 nM, and 1 μM Oxy133). (FIG. 4C) The amount of YFP-Smo captured by 20S beads or control beads was compared in samples containing either no competitor or 50 μM of a free competitor sterol (20S, Oxy133 or Oxy16). The YFP-Smo captured by the beads was measured by Western blot (top) and plotted (bottom) relative to the amount captured in the binding reaction with no competitor.
Cells at 70% confluence in 24-well plates were transiently transfected with Gli-dependent firefly luciferase and Renilla luciferase vectors as we have previously described (17, 18). […] Luciferase activity was assessed using the Dual Luciferase Reporter Assay System (Promega Corporation, Madison, Wis.) according to manufacturer's instructions after cells were treated for 48 hours.

Lewis rats [4] = experiment: Posterolateral intertransverse process spinal fusion at L4-L5 in rats; format: in vivo, rat; details: for Fusion Rates (%) Manual Palpation / Fusion Rates (%) Micro-CT / Fusion Rates (%) X-ray: at sacrifice (8 weeks); for bilateral fusion on radiographs: four weeks; for trabecular thickness: micro-CT, 8 weeks
Method: Thirty-eight 8-week-old male Lewis rats were purchased from Charles River Laboratories (Wilmington, Mass.) and were maintained and housed at the UCLA vivarium in accordance with regulations set forth by the UCLA Office of Protection of Research Subjects. The study was performed under a protocol approved by the UCLA Animal Research Committee (ARC).
Animals were pre-medicated with sustained release buprenorphine thirty minutes prior to surgery and anesthetized with 2% isoflurane administered in oxygen (1 L/min). The surgical site was shaved and disinfected with Betadine and 70% ethanol. Posterolateral intertransverse process spinal fusion at L4-L5 was performed as in prior studies (21, 22). The L6 vertebral body was identified using the iliac crest as a landmark. A 4-cm longitudinal midline incision was made through the skin and subcutaneous tissue over L4-L5 down to the lumbodorsal fascia. A 2-cm longitudinal paramedial incision was then made in the paraspinal muscles bilaterally to expose the transverse processes of L4-L5, which were decorticated with a high-speed burr. The surgical site was then irrigated with sterile saline, and 5 mm×5 mm×13 mm pieces of collagen sponge (Helistat, Integra Life Sciences) containing dimethyl sulfoxide (DMSO) control, rhBMP-2, or Oxy133 were placed bilaterally, with each implant spanning the transverse processes. The implants were then covered with the overlying paraspinal muscles and the lumbodorsal fascia and skin were closed with 4-0 Prolene sutures (Ethicon, Inc., Somerville, N.J.). Animals were allowed to ambulate, eat, and drink ad libitum immediately after surgery.
Posteroanterior radiographs of the lumbar spine were taken on each animal at 4, 6, and 8 weeks after surgery using a Faxitron LX60 cabinet radiography system and evaluated blindly by two independent observers employing the following standardized scale: 0, no fusion; 1, unilateral fusion; and 2, complete bilateral fusion. The scores from the observers were added together and only a score of 4 was considered as complete fusion.
Eight weeks after surgery, animals were euthanized and the spines were surgically removed and evaluated by two blinded independent observers for motion between levels. Nonunion was recorded if motion was observed between the facets or transverse processes on either side. Complete fusion was recorded if no motion was observed bilaterally. Spines were scored as either fused or not fused. Unanimous agreement was required to consider complete fusion.
Each removed spine was analyzed by high resolution micro-computed tomography (micro-CT), using a SkyScan 1172 scanner (SkyScan, Belgium) with a voxel isotropic resolution of 20 μm and an X-ray energy of 55 kVp and […] to further assess the fusion rate and observe the fusion mass as we have previously reported (15). Three hundred and sixty projections were acquired over an angular range of 180° with steps of 0.5 with an exposure time of 220 msec/slice. Five frames were averaged at each rotation step to get better signal to noise ratio. A 0.5 mm aluminum filter was used to narrow down the X-ray beam frequency in order to minimize beam hardening artifact. Virtual image slices were reconstructed using the cone-beam reconstruction software version 2.6 based on the Feldkamp algorithm (SkyScan). These settings produced serial cross-sectional 1024×1024 pixel images. Sample re-orientation and 2D visualization were performed using DataViewer (SkyScan). 3D visualization was performed using Dolphin Imaging version 11 (Dolphin Imaging & Management Solutions, Chatsworth, Calif.). Fusion was defined as the bilateral presence of bridging bone between the L4 and L5 transverse processes. The reconstructed images were judged to be fused or not fused by two experienced independent observers.

CC1=C2C[C@H]3[C@@H](CC=C4C[C@@H](O)CC[C@@]43C)[C@@H]2CC[C@]12O[C@@H]1C[C@H](C)CN[C@H]1[C@H]2C [Cyclopamine]
inhibition of Oxy133-induced ALP activity and expression of osteogenic markers [1]: completely inhibited

CC(C)CCCC(C)(O)C1CCC2C3CC(O)C4CC(O)CCC4(C)C3CCC21C (stereo not shown) [Oxy34]
fusion at the 4 week time point in prior studies (Lewis rats [2]): no fusion

C=C(C)CCC[C@](C)(O)[C@H]1CC[C@H]2[C@@H]3C[C@H](O)[C@H]4C[C@@H](O)CC[C@]4(C)[C@H]3CC[C@@]21C [Oxy49]
fusion at the 4 week time point in prior studies (Lewis rats [2]): no fusion

CCCCCC[C@](C)(O)[C@H]1CC[C@H]2[C@@H]3C[C@H](O)[C@H]4C[C@@H](O)CC[C@]4(C)[C@H]3CC[C@@]21C [Oxy133, (3S,5S,6S,8R,9S,10R,13S,14S,17S) 17-((S)-2-hydroxyoctan-2-yl)-10,13-dimethylhexadecahydro-1H-cyclopenta[a]phenanthrene-3,6-diol]
induction of Gli-dependent reporter activity ([3]; 100 nM): 5 fold
induction of Gli-dependent reporter activity ([3]; at 1 Oxy133 (unit not given)): 17 fold
Fusion Rates (%) Manual Palpation (Lewis rats [4]; Oxy133 0.2 mg): 0%
Fusion Rates (%) Micro-CT (Lewis rats [4]; Oxy133 0.2 mg): 0%
Fusion Rates (%) X-ray (Lewis rats [4]; Oxy133 0.2 mg): 0%
bilateral fusion, micro-CT (Lewis rats [4]; Oxy133 2 mg): 4/8
bilateral fusion confirmed on manual palpation (Lewis rats [4]; Oxy133 2 mg, after sacrifice): 4/8
Fusion Rates (%) Manual Palpation (Lewis rats [4]; Oxy133 2 mg): 50%
Fusion Rates (%) Micro-CT (Lewis rats [4]; Oxy133 2 mg): 50%
Fusion Rates (%) X-ray (Lewis rats [4]; Oxy133 2 mg): 50%
fusion on radiographs (Lewis rats [4]; Oxy133 2 mg, eight weeks): 4/8
bilateral fusion on radiographs (Lewis rats [4]; Oxy133 2 mg): 3/8
trabecular thickness (Lewis rats [4]; Oxy133 2 mg): 134.008
bilateral fusion by manual assessment (Lewis rats [4]; Oxy133 20 mg, after sacrifice): 6/7
Fusion Rates (%) Manual Palpation (Lewis rats [4]; Oxy133 20 mg): 86%
Fusion Rates (%) Micro-CT (Lewis rats [4]; Oxy133 20 mg): 100%
Fusion Rates (%) X-ray (Lewis rats [4]; Oxy133 20 mg): 100%
bilateral fusion on radiographs (Lewis rats [4]; Oxy133 20 mg): 6/7
trabecular thickness (Lewis rats [4]; Oxy133 20 mg): 124.737
